Series [1] can be described thus: solubility in 100 g of water, Test Example 2. It counts as physicochemical. On the procedure: About each of crystal A yielded according to the same process in Example 1, and crystal B yielded according to the same process in Comparative Example 1, the solubility thereof in 100 g of water was measured.
Series [2] in a line: differential scanning calorimetry (DSC), Test Example 1. Format: physicochemical. Particulars: for Endothermic peak / Exothermic peak: DSC, 25 to 500° C., 10° C./minute, air-tightly closed SUS container. On the procedure: About the DSC measurement, for example, a differential scanning calorimeter of an EXTER 6000 type, manufactured by SII Nano Technology Inc., is used to make it possible to make the measurement under the following conditions: […]
measuring temperature range: 25 to 500° C., temperature-raising rate: 10° C./minute, container: air-tightly closed SUS, sample amount: about 0.4 to 0.7 mg, reference: α-alumina having a weight of about 0.6 mg, and atmospheric gas flow rate: dried nitrogen, about 70 mL/minute.
About each of crystal A yielded according to the same process in Example 1, and crystal B yielded according to the same process in Comparative Example 1, a device manufactured by SII Nano Technology Inc., EXTER 6000, was used to measure the DSC thereof under differential scanning calorie analysis conditions described below.
(Differential Scanning Calorie Analysis Conditions)
For orientation: In DSC, transitions show as peaks or steps in heat flow.

Regarding `NC[C@H](CC(=O)O)c1ccc(Cl)cc1` [Crystal B, (R)-4-amino-3-(4-chlorophenyl)butanoic acid, reference compound], the “solubility in 100 g of water” value is reported as 1.98 g in series [1] (25° C.), 2.59 g in series [1] (55° C.) and 2.86 g in series [1] (75° C.). In addition, in series [2], the Endothermic peak turned out to be 187 °C. Further, the Exothermic peak in series [2] was 349 °C.

As to `NC[C@H](CC(=O)O)c1ccc(Cl)cc1` [Crystal A, (R)-4-amino-3-(4-chlorophenyl)butanoic acid], the “solubility in 100 g of water” value in series [1] (25° C.) is recorded as 0.88 g; in series [1] (40° C.), 1.16 g; in series [1] (75° C.), 2.20 g. This molecule also came in with an Endothermic peak in series [2] of 203 °C. The same molecule registered an Exothermic peak in series [2] of 386 °C. For the same molecule, the thermal stability entry in series [2] (concluded from the DSC endothermic and exothermic peaks, compared with crystal B) was “far better in thermal stability than crystal B”.
